# Data published in patent US8409550B2, “Method for treating skin with retinoids and retinoid boosters” (Unilever Home & Personal Care, USA, Division of Conopco, …, priority 2000, dated 2013).
# Values joined by “and” are separate entries in the source; they are usually repeats but may differ in a detail not shown here. Equal entries are not always repeated.
# What was measured:
# Retinol Dehydrogenase = experiment: Assay for retinol dehydrogenase activity, rat liver microsomes (to identify B2); type: biochemical; conditions: test compound final 100 μM
# Experimental: 2.2 Isolation of Rat Liver Microsomes (4)
# The resulting homogenate was successively centrifuged for 30 min. at 10,000 g, 30 min. at 20,000 g, and 15 min. at 30,000 g, and the resulting supernatant was ultra-centrifuged for 80 min. at 105,000 g. […] Protein concentrations were determined as described above.
# 2.4 Assay for Retinol Dehydrogenase Activity (to Identify B2)
# The following stock solutions were prepared:
# 50 mM KH2PO4, pH 7.4 buffer, sterile filtered.
# 10 mM all trans Retinol (Sigma 87632) in DMSO.
# 200 mM Nicotinamide adenine dinucleotide phosphate, sodium salt (NADP) (Sigma N0505) in sterile water.
# 40 mM test compound in appropriate solvent (water, buffer, ethanol, chloroform or DMSO).
# 1:10 dilution of rat liver Microsomes in 50 mM KH2PO4, pH 7.4 buffer (4 μg/μl).
# In a two-dram glass vial with screw cap, the following were added in order:
# Buffer to give a final volume of 400 μl
# 25 μl diluted Microsomes (final=100 μg)—boiled Microsomes were used for controls and regular Microsomes for test samples.
# 4 μl of 200 mM NADP (final=2 mM)
# 1 μl of 40 mM test compound (final=100 μM)
# 8 μl of 10 mM retinol (final=200 μM)
# The vials were incubated in a 37° C. shaking water bath for 45 minutes. 500 μl ice-cold ethanol was added to each vial to quench the reaction. The retinoids were extracted twice with ice cold hexane (2.7 ml per extraction). […]
# [1] = test system: transglutaminase (TGase I); experiment: Transglutaminase (Tgase) ELISA assay in cultured keratinocytes with retinol and boosters; type: cell-based, human; conditions: for TG as % C, Compd 3: Compound 3 alone; for TG as % C, Compd 3 / TG as % C Compd 2 / TG as % C Compd 1: concentration one log below IC20; for Tgase levels (Mean): with 10^-7 M retinol
# Experimental: For this reason, a transalutaminase (Tgase) assay was utilised.
# Thus TGase I is a useful marker of epidermal keratinocyte differentiation with high TGase I levels indicating a more differentiated state. An ELISA based TGase I assay, using a TGase I antibody, was used to assess the state of differentiation of the cultured keratinocytes in the examples that follow.
# Keratinocytes (cultured as described above) were plated in 96 well plates at a density of 4,000-5,000 cells per well in 200 μl media. After incubation for two to three days, or until cells are ˜50% confluent, the media was changed to media containing test compounds (five replicates per test). The cells were cultured for a further 96 hours after which time the media was aspirated and the plates stored at −70° C. Plates were removed from the freezer, and the cells were washed twice with 200 μl of 1×PBS. The cells were incubated for one hour at room temperature (R/T) with TBS/5% BSA (wash buffer, bovine serum albumin). Next the TGase primary antibody was added: 50 μl of monoclonal anti-Tgase I Ab B.C. diluted 1:2000 in wash buffer. The primary antibody was incubated for 2 hours at 37° C. and then rinsed 6× with wash buffer. Cells were then incubated with 50 μl of secondary antibody (Fab fragment, peroxidase conjugated anti-mouse IgG obtaining from Amersham) diluted 1:4,000 in wash buffer for two hours at 37° C., then rinsed three times with wash buffer. Following the rinse with washing buffer, the cells were rinsed 3× with PBS. For colourimetric development, the cells were incubated with 100 μl substrate solution (4 mg o-phenylenediamine and 3.3 μl 30% H2O2 in 10 ml 0.1M citrate buffer pH 5.0) for exactly five minutes, R/T, in darkness (under aluminum foil). The reaction was stopped by the addition of 50 μl 4 N H2SO4. […] Out of the five replicates, four were treated with both antibodies, the fifth one was use as a Tgase background control. Tgase levels were determined and expressed as percentage control.
# A suspension of keratinocytes was prepared at a concentration of 3000 cells/200 μl/well in KGM medium (Used 3×10^5 cells/12 ml media in each microtitre plate)
# 200 μl of the keratinocyte suspension was transferred into each of the inner 60 wells only.
# Each plate was incubated at 37° C. and 5% CO2 for 3 days or until cells are ˜50% confluent.
# Stock solutions of the samples were prepared in DMSO.
# The samples were diluted to desired concentration with the final assay concentration of DMSO being 0.1%.
# [2] = in the presence of 10^-7M retinol
substance,measurement,setting,value
Sphingomyelin,% Increase Retinol Dehydrogenase,Retinol Dehydrogenase,26% increase
same,"TG as % C, Compd 3",[1]; [2],60 % C
same,Tgase levels (Mean),[1]; booster 1.0E−05 Molar,77.8 % of control
same,Tgase levels (Mean),[1]; booster 1.1E−06 Molar,98.8 % of control
same,Tgase levels (Mean),[1]; booster 1.23E−07 Molar,70.0 % of control
same,Tgase levels (Mean),[1]; booster 1.65E−09 Molar,68.4 % of control
same,Tgase levels (Mean),[1]; booster 3.0E−05 Molar,45 % of control
same,Tgase levels (Mean),[1]; booster 3.29E−10 Molar,69.2 % of control
same,Tgase levels (Mean),[1]; booster 3.33E−06 Molar,76.4 % of control
same,Tgase levels (Mean),[1]; booster 3.73E−07 Molar,91.6 % of control
same,Tgase levels (Mean),[1]; booster 4.10E−08 Molar,74.6 % of control
same,Tgase levels (Mean),[1]; booster 8.2E−08 Molar,115.2 % of control
same,TG as % C Compd 2,"[1]; compound 2 alone, with retinol",84 % C and 98 % C
Phosphatidyl Choline,% Increase Retinol Dehydrogenase,Retinol Dehydrogenase,21% increase
same,TG as % C Compd 1,"[1]; Compound 1 alone, in the presence of 10^-7M retinol",88 % C
same,TG as % C Compd 2,"[1]; Compound 2 alone, in the presence of 10^-7M retinol",88 % C
same,"TG as % C, Compd 3",[1]; [2],88 % C
same,Tgase levels (Mean),[1]; booster 1.2E−08 Molar,159 % of control
same,Tgase levels (Mean),[1]; booster 1.47E−05 Molar,120.3 % of control
same,Tgase levels (Mean),[1]; booster 1.63E−06 Molar,98.8 % of control
same,Tgase levels (Mean),[1]; booster 1.8E−07 Molar,75.9 % of control
same,Tgase levels (Mean),[1]; booster 2.4E−09 Molar,85.5 % of control
same,Tgase levels (Mean),[1]; booster 4.4E−05 Molar,90.9 % of control
same,Tgase levels (Mean),[1]; booster 4.89E−06 Molar,70.1 % of control
same,Tgase levels (Mean),[1]; booster 5.43E−07 Molar,86.7 % of control
same,Tgase levels (Mean),[1]; booster 6.0E−08 Molar,87.8 % of control
same,TG as % C Compd 1,"[1]; compound 1 alone, with retinol",98 % C
same,TG as % C Compd 2,"[1]; compound 2 alone, with retinol, listed as Phospahtidylcholine",97 % C
same,TG as % C Compd 2,"[1]; compound 2 alone, with retinol, listed as Phosphatidyl choline",98 % C
same,TG as % C Compd 2,"[1]; compound 2 alone, with retinol, listed as Phosphatidylcholine",97 % C
